Results taken from US9186360B2, “Treatment of respiratory disorders using TRPA1 antagonists” (GLENMARK PHARMACEUTICALS S.A., priority 2011, dated 2015).

Assays:
Assay type in all cases: cell-based
human TRPA1 = human TRPA1 (Homo sapiens (Human), UniProt O75762); assay: 45Calcium uptake assay, AITC induced, human TRPA1 expressing CHO cells; settings: AITC 30 micromolar, read-out: IC50 values hTRPA1
Protocol: As contemplated herein, the IC50 value is measured by the following method. The inhibition of TRPA1 receptor activation is measured as inhibition of allylisothiocyanate (AITC) induced cellular uptake of radioactive calcium. Test solution of test compound is prepared in a suitable solvent using appropriate method. Human TRPA1 expressing CHO cells are grown in suitable medium. Cells are treated with test compounds followed by addition of AITC. Cells are washed and lysed. Radioactivity in the lysate is measured in Packard Top count after addition of liquid scintillant. The concentration response curves for compounds are plotted as a % of maximal response obtained in the absence of test antagonist, and the IC50 values are calculated from such concentration response curve by nonlinear regression analysis using GraphPad PRISM software.
The illustrative TRPA1 antagonists of the present invention were screened for TRPA1 activity according to a modified procedure described in Tóth, A. et al., Life Sciences 2003, 73, 487-498. The screening of the compounds can be carried out by other methods and procedures known to persons skilled in the art.
Screening for TRPA1 Antagonist Using the 45Calcium Uptake Assay:
The inhibition of TRPA1 receptor activation was measured as inhibition of allylisothiocyanate (AITC) induced cellular uptake of radioactive calcium. Test compounds were dissolved in DMSO to prepare 10 mM stock solution and then diluted using plain medium with 0.1% BSA and 1.8 mM CaCl2 to get desired concentration. Final concentration of DMSO in the reaction was 0.5% (v/v). Human TRPA1 expressing CHO cells were grown in F-12 DMEM medium with 10% FBS, 1% penicillin-streptomycin solution, and 400 μg/ml of G-418. Cells were seeded 24 h prior to the assay in 96 well plates so as to get ˜50,000 cells per well on the day of experiment. Cells were treated with test compounds for 10 min followed by addition of AITC at a final concentration of 30 micromolar and 5 μCi/ml 45Ca+2 for 3 min at 25° C. Cells were washed and lysed using buffer containing 1% Triton X-100, 0.1% deoxycholate and 0.1% SDS. Radioactivity in the lysate was measured in Packard Top count after addition of liquid scintillant.
Concentration response curves were plotted as a % of maximal response obtained in the absence of test antagonist. IC50 value was calculated from concentration response curve by nonlinear regression analysis using GraphPad PRISM software.

human TRPV1 = human TRPV1 (Homo sapiens (Human), UniProt Q8NER1); assay: Radiometric calcium selectivity assay, CHO cells expressing human TRPV1 (capsaicin); settings: read-out: IC50 values hTRPV1
Protocol: (§1) For selectivity screening, CHO cells stably expressing human TRPV1, human TRPV3, human TRPV4, or human TRPM8 were generated in-house and maintained in DMEM F-12 supplemented with 10% FBS and G418. All the cell types were cultured at 37° C. in humidified air containing 5% CO2. Radiometric calcium assay was performed as described above with some minor modifications. Assay was carried out in total volume of 200 μl at 30° C. (for TRPV1), 32° C. (for TRPV3) and 25° C. (for TRPV4 and TRPM8). Agonists used for selectivity screening of the different TRPs are: Capsaicin for TRPV1,2-aminoethoxydiphenyl borate for TRPV3, 4α-phorbol 12,13-didecanoate for TRPV4 and Icilin for TRPM8. After 2-5 minutes of agonist treatment, drug was washed and lysed in lysis buffer as mentioned above. Radioactivity in the lysate was measured in Packard Top count after addition of liquid scintillant.

human TRPV3 = human TRPV3 (Homo sapiens (Human), UniProt Q8NET8); assay: Radiometric calcium selectivity assay, CHO cells expressing human TRPV3 (2-aminoethoxydiphenyl borate); settings: read-out: IC50 values hTRPV3
Protocol: as §1

human TRPV4 = human TRPV4 (Homo sapiens (Human), UniProt Q9HBA0); assay: Radiometric calcium selectivity assay, CHO cells expressing human TRPV4 (4α-phorbol 12,13-didecanoate); settings: read-out: IC50 values hTRPV4
Protocol: as §1

human TRPM8 = human TRPM8 (Homo sapiens (Human), UniProt Q7Z2W7); assay: Radiometric calcium selectivity assay, CHO cells expressing human TRPM8 (icilin); settings: read-out: IC50 values hTRPM8
Protocol: as §1

Chain of human TRPA1 (O75762 whole entry): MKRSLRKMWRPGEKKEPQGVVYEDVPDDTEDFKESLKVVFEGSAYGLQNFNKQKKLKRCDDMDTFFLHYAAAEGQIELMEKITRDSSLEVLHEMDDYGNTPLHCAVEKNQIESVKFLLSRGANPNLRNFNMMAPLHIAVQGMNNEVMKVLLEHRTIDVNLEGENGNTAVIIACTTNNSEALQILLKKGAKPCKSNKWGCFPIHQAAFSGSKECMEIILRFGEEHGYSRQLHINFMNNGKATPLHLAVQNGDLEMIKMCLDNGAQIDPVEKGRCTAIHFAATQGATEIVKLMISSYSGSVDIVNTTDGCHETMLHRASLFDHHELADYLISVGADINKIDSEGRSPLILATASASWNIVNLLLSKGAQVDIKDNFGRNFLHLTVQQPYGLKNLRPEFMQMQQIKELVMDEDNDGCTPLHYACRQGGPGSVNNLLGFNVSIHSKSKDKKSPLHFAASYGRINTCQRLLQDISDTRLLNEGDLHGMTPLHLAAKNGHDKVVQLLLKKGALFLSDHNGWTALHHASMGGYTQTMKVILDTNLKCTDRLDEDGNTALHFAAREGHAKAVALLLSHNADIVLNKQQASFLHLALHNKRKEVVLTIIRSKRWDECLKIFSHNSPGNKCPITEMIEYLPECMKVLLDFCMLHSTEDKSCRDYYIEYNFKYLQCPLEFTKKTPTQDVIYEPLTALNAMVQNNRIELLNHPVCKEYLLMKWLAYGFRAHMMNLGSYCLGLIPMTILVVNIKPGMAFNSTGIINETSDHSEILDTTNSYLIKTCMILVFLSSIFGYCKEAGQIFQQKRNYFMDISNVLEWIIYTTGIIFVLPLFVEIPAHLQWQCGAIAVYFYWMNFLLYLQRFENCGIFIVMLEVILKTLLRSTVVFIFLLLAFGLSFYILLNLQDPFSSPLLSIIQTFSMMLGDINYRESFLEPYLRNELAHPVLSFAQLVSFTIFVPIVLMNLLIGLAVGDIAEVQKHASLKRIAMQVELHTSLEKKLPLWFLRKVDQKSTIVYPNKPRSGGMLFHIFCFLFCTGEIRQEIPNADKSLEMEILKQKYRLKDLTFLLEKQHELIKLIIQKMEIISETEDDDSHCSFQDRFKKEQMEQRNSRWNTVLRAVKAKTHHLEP
Chain of human TRPM8 (Q7Z2W7 whole entry): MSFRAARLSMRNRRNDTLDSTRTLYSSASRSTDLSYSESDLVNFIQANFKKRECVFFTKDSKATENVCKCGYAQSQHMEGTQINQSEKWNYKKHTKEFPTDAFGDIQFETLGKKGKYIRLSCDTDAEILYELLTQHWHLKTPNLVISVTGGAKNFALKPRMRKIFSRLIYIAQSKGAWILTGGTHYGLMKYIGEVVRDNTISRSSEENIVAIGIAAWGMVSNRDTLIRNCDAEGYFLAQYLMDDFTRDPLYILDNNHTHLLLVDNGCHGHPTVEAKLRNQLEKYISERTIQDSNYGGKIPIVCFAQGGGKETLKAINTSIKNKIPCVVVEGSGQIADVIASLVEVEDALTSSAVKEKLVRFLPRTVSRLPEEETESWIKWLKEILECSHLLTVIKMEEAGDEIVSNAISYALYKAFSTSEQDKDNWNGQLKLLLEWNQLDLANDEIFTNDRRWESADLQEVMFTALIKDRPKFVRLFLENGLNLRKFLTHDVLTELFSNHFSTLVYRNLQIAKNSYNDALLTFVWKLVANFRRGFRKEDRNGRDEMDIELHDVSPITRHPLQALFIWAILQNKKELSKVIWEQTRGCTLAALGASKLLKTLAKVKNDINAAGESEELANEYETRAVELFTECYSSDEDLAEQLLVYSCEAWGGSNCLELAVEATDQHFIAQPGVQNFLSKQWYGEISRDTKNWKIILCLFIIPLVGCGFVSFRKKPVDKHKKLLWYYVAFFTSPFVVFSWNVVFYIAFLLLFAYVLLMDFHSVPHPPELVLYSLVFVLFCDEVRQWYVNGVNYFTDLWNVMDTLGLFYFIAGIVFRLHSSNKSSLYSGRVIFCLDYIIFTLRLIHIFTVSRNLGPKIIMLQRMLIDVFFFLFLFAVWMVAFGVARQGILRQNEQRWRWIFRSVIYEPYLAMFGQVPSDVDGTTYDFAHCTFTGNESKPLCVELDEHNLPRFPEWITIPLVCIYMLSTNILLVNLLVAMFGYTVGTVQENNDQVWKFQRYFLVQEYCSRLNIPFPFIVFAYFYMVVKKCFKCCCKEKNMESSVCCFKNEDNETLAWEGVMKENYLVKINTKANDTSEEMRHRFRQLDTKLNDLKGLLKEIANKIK
Chain of human TRPV1 (Q8NER1 whole entry): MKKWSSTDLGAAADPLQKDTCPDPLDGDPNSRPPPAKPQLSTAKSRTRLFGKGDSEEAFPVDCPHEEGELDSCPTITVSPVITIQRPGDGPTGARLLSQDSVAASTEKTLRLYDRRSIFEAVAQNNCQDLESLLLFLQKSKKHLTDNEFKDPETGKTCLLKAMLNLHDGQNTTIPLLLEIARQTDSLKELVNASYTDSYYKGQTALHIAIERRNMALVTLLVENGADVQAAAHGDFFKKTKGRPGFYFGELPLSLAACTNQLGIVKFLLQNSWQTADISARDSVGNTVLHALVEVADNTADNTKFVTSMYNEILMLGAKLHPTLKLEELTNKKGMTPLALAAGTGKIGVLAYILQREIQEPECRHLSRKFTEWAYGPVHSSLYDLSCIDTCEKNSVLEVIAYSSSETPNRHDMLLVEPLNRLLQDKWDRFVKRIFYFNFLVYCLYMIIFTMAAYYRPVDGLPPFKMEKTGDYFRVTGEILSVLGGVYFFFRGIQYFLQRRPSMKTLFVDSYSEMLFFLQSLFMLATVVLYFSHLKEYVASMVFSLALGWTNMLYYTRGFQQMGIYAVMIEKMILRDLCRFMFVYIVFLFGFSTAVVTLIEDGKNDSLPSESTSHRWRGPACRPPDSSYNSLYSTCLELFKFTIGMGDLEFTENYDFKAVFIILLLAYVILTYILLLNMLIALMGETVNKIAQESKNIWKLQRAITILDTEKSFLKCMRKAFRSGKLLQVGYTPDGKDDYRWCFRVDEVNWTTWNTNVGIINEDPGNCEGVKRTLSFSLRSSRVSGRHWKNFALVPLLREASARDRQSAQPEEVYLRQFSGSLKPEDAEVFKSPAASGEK
Chain of human TRPV3 (Q8NET8 whole entry): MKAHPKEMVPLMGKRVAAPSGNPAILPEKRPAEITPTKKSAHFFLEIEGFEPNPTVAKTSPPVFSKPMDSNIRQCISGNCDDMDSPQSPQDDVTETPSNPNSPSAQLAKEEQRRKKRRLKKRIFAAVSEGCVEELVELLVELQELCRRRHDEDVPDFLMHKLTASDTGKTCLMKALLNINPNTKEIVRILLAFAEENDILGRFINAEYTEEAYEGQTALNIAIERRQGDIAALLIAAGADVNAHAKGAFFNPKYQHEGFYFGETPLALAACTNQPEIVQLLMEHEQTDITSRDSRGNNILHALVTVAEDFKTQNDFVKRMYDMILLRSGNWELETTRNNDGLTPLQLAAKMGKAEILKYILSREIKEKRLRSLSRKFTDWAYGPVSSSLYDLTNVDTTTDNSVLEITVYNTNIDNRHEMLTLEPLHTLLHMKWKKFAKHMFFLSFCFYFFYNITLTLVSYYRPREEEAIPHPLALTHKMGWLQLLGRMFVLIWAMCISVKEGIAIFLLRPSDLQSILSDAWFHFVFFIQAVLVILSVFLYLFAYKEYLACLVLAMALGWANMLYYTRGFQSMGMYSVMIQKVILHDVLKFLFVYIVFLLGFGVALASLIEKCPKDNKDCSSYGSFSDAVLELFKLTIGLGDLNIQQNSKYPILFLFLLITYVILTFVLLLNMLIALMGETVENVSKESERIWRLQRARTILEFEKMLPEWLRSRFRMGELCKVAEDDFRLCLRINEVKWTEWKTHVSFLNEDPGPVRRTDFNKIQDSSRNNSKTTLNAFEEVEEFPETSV
Chain of human TRPV4 (Q9HBA0 whole entry): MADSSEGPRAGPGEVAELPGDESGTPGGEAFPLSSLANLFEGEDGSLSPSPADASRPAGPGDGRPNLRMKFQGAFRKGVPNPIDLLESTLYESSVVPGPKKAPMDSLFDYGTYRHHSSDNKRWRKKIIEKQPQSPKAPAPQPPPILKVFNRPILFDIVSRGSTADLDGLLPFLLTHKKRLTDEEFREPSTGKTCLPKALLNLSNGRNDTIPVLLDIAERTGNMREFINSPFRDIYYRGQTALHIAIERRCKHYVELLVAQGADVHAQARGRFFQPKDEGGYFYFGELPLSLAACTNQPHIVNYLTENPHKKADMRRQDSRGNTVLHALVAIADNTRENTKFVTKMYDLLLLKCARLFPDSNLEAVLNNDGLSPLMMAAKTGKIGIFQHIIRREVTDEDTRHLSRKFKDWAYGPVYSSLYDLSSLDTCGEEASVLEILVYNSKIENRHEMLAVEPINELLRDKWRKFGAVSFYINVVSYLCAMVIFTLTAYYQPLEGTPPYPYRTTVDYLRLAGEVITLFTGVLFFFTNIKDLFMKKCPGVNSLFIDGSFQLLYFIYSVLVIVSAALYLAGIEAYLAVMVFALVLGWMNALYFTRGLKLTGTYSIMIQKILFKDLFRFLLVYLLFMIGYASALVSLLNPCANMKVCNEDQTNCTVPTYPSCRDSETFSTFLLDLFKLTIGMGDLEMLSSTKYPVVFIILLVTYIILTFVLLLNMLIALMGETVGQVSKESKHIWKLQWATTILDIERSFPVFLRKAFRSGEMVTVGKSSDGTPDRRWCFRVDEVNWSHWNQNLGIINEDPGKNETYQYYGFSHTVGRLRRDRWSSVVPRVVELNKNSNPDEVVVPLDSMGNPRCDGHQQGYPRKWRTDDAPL

| SMILES | IC50 (human TRPA1) | IC50 (human TRPV1) | IC50 (human TRPV3) | IC50 (human TRPV4) | IC50 (human TRPM8) |
| --- | --- | --- | --- | --- | --- |
| Cn1c(=O)c2c(CC(=O)Nc3nc(-c4ccc(OC(F)F)c(Cl)c4)cs3)cccc2n(C)c1=O [Compound 30] | 0.034 µM | > 10 µM | > 10 µM | > 10 µM | > 10 µM |
| Cn1c(=O)c2c(CC(=O)Nc3nc(-c4cc(F)c(OCC(F)(F)F)c(F)c4)cs3)cccc2n(C)c1=O [Compound 32] | 0.00596 µM | > 10 µM | > 10 µM | > 1 µM | > 10 µM |
| Cn1c(=O)c2c(ccn2CC(=O)Nc2nc(-c3ccc(C(F)(F)F)c(F)c3)cs2)n(C)c1=O [Compound 36] | 0.0499 µM | > 10 µM | > 10 µM | > 10 µM | > 10 µM |
| Cn1nc2c(c1CC(=O)Nc1nc(-c3ccc(C(F)(F)F)c(F)c3)cs1)c(=O)n(C)c(=O)n2C [Compound 38] | 0.0159 µM | > 10 µM | > 10 µM | > 1 µM | > 10 µM |
| Cn1nc2c(c1CC(=O)Nc1nc(-c3ccc(C(F)(F)F)cc3)cs1)c(=O)n(C)c(=O)n2C [Compound 39] | 0.0266 µM | > 10 µM | > 10 µM | > 1 µM | > 10 µM |
| Cn1nc2c(c1CC(=O)Nc1nc(-c3ccc(OC(F)(F)F)c(F)c3)cs1)c(=O)n(C)c(=O)n2C [Compound 41] | 0.011 µM | > 10 µM | > 10 µM | > 1 µM | > 10 µM |
| Cc1sc2c(c1CC(=O)Nc1nc(-c3ccc(Cl)c(Cl)c3)cs1)c(=O)n(C)c(=O)n2C [Compound 47] | 0.0336 µM | > 10 µM | > 10 µM | > 1 µM | > 10 µM |
| CC(C)COc1c(F)cc(-c2csc(NC(=O)Cc3coc4c3c(=O)n(C)c(=O)n4C)n2)cc1F [Compound 53] | 0.0182 µM | > 10 µM | > 10 µM | > 1 µM | > 10 µM |
| Cn1c(=O)c2c(CC(=O)Nc3nc(-c4ccc(C(F)(F)F)c(F)c4)cs3)coc2n(C)c1=O [Compound 54] | 0.0177 µM | > 10 µM | > 1 µM | > 1 µM | > 10 µM |
| Cn1c(=O)c2c(CC(=O)Nc3nc(-c4cc(F)cc(C(F)(F)F)c4)cs3)coc2n(C)c1=O [Compound 55] | 0.00215 µM | > 10 µM | > 1 µM | > 1 µM | > 10 µM |
| Cn1c(=O)c2c(CC(=O)Nc3nc(-c4cc(F)c(CCC(F)(F)F)c(F)c4)cs3)coc2n(C)c1=O [Compound 56] | 0.00338 µM | > 10 µM | > 10 µM | > 1 µM | > 10 µM |
| Cn1c(=O)c2c(CC(=O)Nc3nc(-c4cc(Cl)c(OCC(F)(F)F)c(Cl)c4)cs3)coc2n(C)c1=O [Compound 57] | 0.00145 µM | > 10 µM | > 10 µM | > 1 µM | > 10 µM |
| Cn1c(=O)c2c(CC(=O)Nc3nc(-c4ccc(F)c(C(F)(F)F)c4)cs3)coc2n(C)c1=O [Compound 58] | 0.0119 µM | > 10 µM | > 1 µM | > 1 µM | > 10 µM |
| Cn1c(=O)c2c(CC(=O)Nc3nc(-c4cc(F)c(OCC(F)(F)F)c(Cl)c4)cs3)coc2n(C)c1=O [Compound 60] | 0.00354 µM | > 10 µM | > 10 µM | > 1 µM | > 10 µM |
| Cc1oc2c(c1CC(=O)Nc1nc(-c3cc(F)cc(C(F)(F)F)c3)cs1)c(=O)n(C)c(=O)n2C [Compound 61] | 0.00293 µM | > 10 µM | > 10 µM | > 10 µM | > 10 µM |

Results, then the compound that gave them:

| IC50 (human TRPA1) | IC50 (human TRPV1) | IC50 (human TRPV3) | IC50 (human TRPV4) | IC50 (human TRPM8) | SMILES |
| --- | --- | --- | --- | --- | --- |
| 0.00649 µM | > 10 µM | > 1 µM | 0.903 µM | > 10 µM | Cn1c(=O)c2c(CC(=O)Nc3nc(-c4ccc(C(F)(F)F)c(F)c4F)cs3)cccc2n(C)c1=O [Compound 28] |
| 0.0114 µM | > 10 µM | > 1 µM | > 10 µM | > 10 µM | Cn1c(=O)c2c(CC(=O)Nc3nc(-c4ccc(OC(F)(F)F)c(F)c4)cs3)cccc2n(C)c1=O [Compound 29] |
| 0.0173 µM | > 10 µM | > 10 µM | > 10 µM | > 10 µM | Cn1c(=O)c2c(CC(=O)Nc3nc(-c4ccc(F)c(C(F)(F)F)c4F)cs3)cccc2n(C)c1=O [Compound 31] |
| 0.00537 µM | > 10 µM | > 10 µM | < 1 µM | > 10 µM | Cn1c(=O)c2c(CC(=O)Nc3nc(-c4cc(F)c(C(F)(F)F)c(F)c4)cs3)cccc2n(C)c1=O [Compound 33] |
| 0.0385 µM | > 10 µM | > 10 µM | > 10 µM | > 10 µM | Cn1c(=O)c2c(ccn2CC(=O)Nc2nc(-c3ccc(OC(F)(F)F)cc3)cs2)n(C)c1=O [Compound 34] |
| 0.0181 µM | > 10 µM | > 10 µM | > 10 µM | > 10 µM | Cn1c(=O)c2c(ccn2CC(=O)Nc2nc(-c3cc(Cl)c(OCCC(F)(F)F)c(Cl)c3)cs2)n(C)c1=O [Compound 35] |
| 0.0123 µM | > 10 µM | > 10 µM | > 10 µM | > 10 µM | Cn1c(=O)c2c(cnn2CC(=O)Nc2nc(-c3cc(Cl)c(OCC(C)(C)C)c(Cl)c3)cs2)n(C)c1=O [Compound 37] |
| 0.0228 µM | > 10 µM | > 10 µM | > 10 µM | > 10 µM | Cn1c(=O)c2c(cnn2CC(=O)Nc2nc(-c3cc(F)c(OCC(C)(C)C)c(F)c3)cs2)n(C)c1=O [Compound 40] |
| 0.0114 µM | > 10 µM | > 10 µM | > 10 µM | > 10 µM | Cn1c(=O)c2c(cnn2CC(=O)Nc2nc(-c3cc(F)c(OCC(C)(C)C)c(Cl)c3)cs2)n(C)c1=O [Compound 42] |
| 0.0184 µM | > 10 µM | > 10 µM | > 1 µM | > 10 µM | Cn1c(=O)c2c(cnn2CC(=O)Nc2nc(-c3cc(F)c(OCC4CCC4)c(F)c3)cs2)n(C)c1=O [Compound 43] |
| 0.0264 µM | > 10 µM | > 1 µM | > 1 µM | > 10 µM | Cn1c(=O)c2c(cnn2CC(=O)Nc2nc(-c3ccc(OCC(C)(C)C)c(F)c3)cs2)n(C)c1=O [Compound 45] |
| 0.0413 µM | > 10 µM | > 10 µM | > 10 µM | > 1 µM | CC(C)c1sc2c(c1CC(=O)Nc1nc(-c3ccc(C(F)(F)F)c(F)c3)cs1)c(=O)n(C)c(=O)n2C [Compound 46] |
| 0.0181 µM | > 10 µM | > 10 µM | > 10 µM | > 10 µM | CCc1sc2c(c1CC(=O)Nc1nc(-c3cc(F)c(OC(F)F)c(F)c3)cs1)c(=O)n(C)c(=O)n2C [Compound 48] |
| 0.00398 µM | > 10 µM | > 10 µM | > 10 µM | > 10 µM | CCc1sc2c(c1CC(=O)Nc1nc(-c3cc(F)c(OCC(F)(F)F)c(F)c3)cs1)c(=O)n(C)c(=O)n2C [Compound 49] |
| 0.0167 µM | > 10 µM | > 1 µM | 8.89 µM | > 10 µM | CCc1sc2c(c1CC(=O)Nc1nc(-c3ccc(C(F)(F)F)c(F)c3)cs1)c(=O)n(C)c(=O)n2C [Compound 50] |
| 0.00221 µM | > 10 µM | > 1 µM | 2.83 µM | > 10 µM | Cn1c(=O)c2c(CC(=O)Nc3nc(-c4cccc(C(F)(F)F)c4F)cs3)coc2n(C)c1=O [Compound 59] |
